Results as given in paper PMC5532645, “Design, Synthesis, and Antifouling Activity of Glucosamine-Based Isocyanides” (Marine Drugs, 2017).
In brackets after ≈: the same amount, converted by molar mass. Read-outs that look alike come from different tables or passages of the source.

Assays:
[1] = tested on: cypris larvae of the barnacle Amphibalanus amphitrite; conditions: cited from earlier work
[2] = Antifouling assay: settlement and mortality of barnacle cyprids after 48 h; assay type: in vivo; conditions: cypris larvae, 48 h incubation, read-out: LC50 (toxicity)
Description: (§1) Adult barnacles (Amphibalanus amphitrite) procured from oyster farms at Lake Hamana and a pier at Shimizu bay, Shizuoka, were kept in an aquarium at 20 °C and fed on Artemia salina nauplii. Broods were released as I–II stage nauplii upon immersion in seawater after drying overnight. The nauplii thus obtained were cultured in filtered natural seawater (salinity 28) containing penicillin G (20 μg/mL) and streptomycin sulfate (30 μg/mL) and were fed on the diatom Chaetoceros gracilis at concentrations of 40 × 10^4 cells/mL. […] The cyprids were collected and stored at 4 °C until use (0 days old).
(§2) The test compounds were dissolved in ethanol and aliquots of the solution were transferred to wells of a 24-well polystyrene culture plate and air-dried. Four wells were used for each concentration. To each well, filtered seawater (2.0 mL, salinity 28) and six 2-day-old cyprids were added. The plates were kept in the dark at 25 °C for 48 h. […] Three or four trials were done for each concentration. Probit analysis was used to calculate the EC50 values.

[3] = tested on: cypris larvae of the barnacle Amphibalanus amphitrite; experiment: as above; assay type: in vivo; conditions: for EC50: Amphibalanus amphitrite, 48 h, read-out: EC50 (antifouling activity), cypris larvae, 48 h incubation, probit analysis; for toxicity / mortality of cypris larvae: at a concentration of 10 μg/mL
Description: as §1, §2

[4] = synthetic sample of 1 and its synthetic intermediates
[5] = Amphibalanus amphitrite (barnacle, in vivo, other: immersion in seawater holding the compound)

Compound	LC50 at 48 h [2, 5] [µg/mL]	EC50 [3] [µg/mL]	also measured
[C-]#[N+][C@@]1(C)CC[C@H](C(C)C)[C@H]2C=C(C)CC[C@@H]21 [Compound 1, 10-isocyano-4-cadinene]			EC50 (antifouling activity) ([1]; natural compound obtained from nudibranchs): 0.14 µg/mL (≈ 0.605 µM); LC50 (50% lethal concentration) ([1]; natural compound): > 10 µg/mL; EC50 (antifouling activity) [1, 4]: 0.06 µg/mL (≈ 0.259 µM); LC50 [1, 4]: > 10 µg/mL
CC1=C[C@H]2[C@H](CC1)[C@@H](O)CC[C@@H]2C(C)C [Compound 2]			EC50 (antifouling activity) [1, 4]: 0.31 µg/mL (≈ 1.49 µM); LC50 [1, 4]: > 10 µg/mL
[C-]#[N+][C@]1(C)CC[C@@H](/C(C)=C/C=C/C(C)C)CC1 [Compound 4, 3-isocyanotheonellin]			EC50 (antifouling activity) ([1]; previously reported): 0.19 µg/mL (≈ 0.821 µM); LC50 ([1]; previously reported): > 10 µg/mL
[C-]#[N+][C@H]1[C@H](OC(C)=O)O[C@H](COC(C)=O)[C@@H](OC(C)=O)[C@@H]1OC(C)=O [Compound 6a]	> 10	> 5	toxicity / mortality of cypris larvae [3]: lethal larva was not observed
[C-]#[N+][C@H]1[C@H](OC(=O)CCCCCCCCCCCCCCC)O[C@H](COC(=O)CCCCCCCCCCCCCCC)[C@@H](OC(=O)CCCCCCCCCCCCCCC)[C@@H]1OC(=O)CCCCCCCCCCCCCCC [Compound 6b]	> 10	> 5	toxicity / mortality of cypris larvae [3]: lethal larva was not observed
[C-]#[N+][C@H]1[C@H](Oc2ccccc2)O[C@H](COC(C)=O)[C@@H](OC(C)=O)[C@@H]1OC(C)=O [Compound 6c]	> 10	0.71 (≈ 1.81 µM)	
[C-]#[N+][C@H]1[C@H](OCc2ccccc2)O[C@H](COC(C)=O)[C@@H](OC(C)=O)[C@@H]1OC(C)=O [Compound 6d]	> 10	0.7 (≈ 1.73 µM)	
[C-]#[N+][C@H]1[C@H](OCC=C)O[C@H](COC(C)=O)[C@@H](OC(C)=O)[C@@H]1OC(C)=O [Compound 6e]	> 10	0.37 (≈ 1.04 µM)	
[C-]#[N+][C@H]1[C@H](OC(C)C)O[C@H](COC(C)=O)[C@@H](OC(C)=O)[C@@H]1OC(C)=O [Compound 6f]	> 10	0.23 (≈ 0.644 µM)	
[C-]#[N+][C@H]1[C@H](OCC(F)(F)F)O[C@H](COC(C)=O)[C@@H](OC(C)=O)[C@@H]1OC(C)=O [Compound 6g]	> 10	0.36 (≈ 0.906 µM)	
[C-]#[N+][C@H]1[C@H](OC(C)C)O[C@H](COC(=O)CCCCCCC)[C@@H](OC(=O)CCCCCCC)[C@@H]1OC(=O)CCCCCCC [Compound 6h]	> 10	0.79 (≈ 1.3 µM)	
[C-]#[N+][C@H]1[C@H](OC(C)C)O[C@H](COC(=O)CCCCCCCCCCCCCCC)[C@@H](OC(=O)CCCCCCCCCCCCCCC)[C@@H]1OC(=O)CCCCCCCCCCCCCCC [Compound 6i]	> 10	0.31 (≈ 0.328 µM)	
[C-]#[N+][C@H]1[C@H](OC(C)C)O[C@H](COC(=O)c2ccccc2)[C@@H](OC(=O)c2ccccc2)[C@@H]1OC(=O)c1ccccc1 [Compound 6j]	> 10	0.81 (≈ 1.49 µM)	
[C-]#[N+][C@H]1[C@H](OC(C)C)O[C@H](CO[Si](C)(C)C(C)(C)C)[C@@H](O[Si](C)(C)C(C)(C)C)[C@@H]1O[Si](C)(C)C(C)(C)C [Compound 6k]		0.25 (≈ 0.436 µM)	LC50 at 48 h ([2]; Amphibalanus amphitrite (barnacle, in vivo)): > 10 µg/mL
O=S(=O)([O-])[O-].[Cu+2] [CuSO4]			EC50 (antifouling activity) ([1]; CuSO4 used as a fouling inhibitor): 0.27 µg/mL
